Assay results taken from US6444615B1, “Herbicidal imidazolidinetrione and thioxo-imidazolidinediones” (Dow AgroSciences LLC, priority 2000, dated 2002).

The compounds below were run on Hairy Beggarticks (Bidens pilosa) (assay: Herbicidal pre-emergence test, Hairy Beggarticks). Conditions: 1200 g/ha, scale of 0-100, 0 no activity, 100 total control, about two or four weeks after application.
Format: in vivo
Procedure: (§1) Listed below, a typical planting design for the test, consisting of four monocot weeds, four dicot weeds and one sedge weed. [table] For each compound, evaluation tests were carried out according to the following procedures: For preemergence tests, immediately after planting, the test compound was sprayed directly onto the soil surface. The flats or pots were placed in the greenhouse and then watered. For postemergence tests, seeds were allowed to germinate and grow for 10 to 21 days before application. The test plants were selected for uniformity, size and stage of development. The test plants were then treated with the test compound, returned to the greenhouse and watered. Untreated plants were used as a comparison. The compound to be evaluated was dissolved in an appropriate solvent, usually acetone, or a formulation of the evaluated compounds as described above, was added to the water, and sprayed over the flats or pots using a carrier volume equivalent to 187 or 468 liters per hectare to give a rate of application in grams per hectare (g/ha). About two or four weeks after application of the test compounds, the state of the plant was observed. Each species was evaluated on a scale of 0-100 in which 0 equals no activity and 100 equals total control.

| SMILES | Herbicidal Activity BID (pre-emergence) |
| --- | --- |
| C#CCN1C(=O)COc2cc(F)c(N3C(=O)C(=O)N(CC(F)(F)F)C3=O)cc21 [Compound 24] | 0 |
| C#CCOc1cc(N2C(=O)C(=O)N(CCCC)C2=O)c(F)cc1Cl [Compound 14] | 0 |
| C#CCOc1cc(N2C(=O)C(=O)N(C)C2=O)c(F)cc1Cl [Compound 12] | 40 |

Each compound was assayed on Hairy Beggarticks (Bidens pilosa) (assay: Herbicidal post-emergence test, Hairy Beggarticks). Conditions: 1200 g/ha, scale of 0-100, 0 no activity, 100 total control, about two or four weeks after application.
Format: in vivo
Procedure: as §1

| SMILES | Herbicidal Activity BID (post-emergence) |
| --- | --- |
| C#CCN1C(=O)COc2cc(F)c(N3C(=O)C(=O)N(CC(F)(F)F)C3=O)cc21 [Compound 24] | 40 |
| C#CCOc1cc(N2C(=O)C(=O)N(CCCC)C2=O)c(F)cc1Cl [Compound 14] | 95 |
| C#CCOc1cc(N2C(=O)C(=O)N(C)C2=O)c(F)cc1Cl [Compound 12] | 95 |

These compounds were tested on Nightshade, (black) (Solanum nigrum) (assay: Herbicidal pre-emergence test, Nightshade (black)). Conditions: 1200 g/ha, scale of 0-100, 0 no activity, 100 total control, about two or four weeks after application.
Format: in vivo
Procedure: as §1

| SMILES | Herbicidal Activity NS (pre-emergence) |
| --- | --- |
| C#CCN1C(=O)COc2cc(F)c(N3C(=O)C(=O)N(CC(F)(F)F)C3=O)cc21 [Compound 24] | 0 |
| C#CCOc1cc(N2C(=O)C(=O)N(CCCC)C2=O)c(F)cc1Cl [Compound 14] | 0 |
| C#CCOc1cc(N2C(=O)C(=O)N(C)C2=O)c(F)cc1Cl [Compound 12] | 50 |

The compounds below were run on Nightshade, (black) (Solanum nigrum) (assay: Herbicidal post-emergence test, Nightshade (black)). Conditions: 1200 g/ha, scale of 0-100, 0 no activity, 100 total control, about two or four weeks after application.
Format: in vivo
Procedure: as §1

| SMILES | Herbicidal Activity NS (post-emergence) |
| --- | --- |
| C#CCN1C(=O)COc2cc(F)c(N3C(=O)C(=O)N(CC(F)(F)F)C3=O)cc21 [Compound 24] | 60 |
| C#CCOc1cc(N2C(=O)C(=O)N(CCCC)C2=O)c(F)cc1Cl [Compound 14] | 100 |
| C#CCOc1cc(N2C(=O)C(=O)N(C)C2=O)c(F)cc1Cl [Compound 12] | 100 |

Each compound was assayed on Smartweed, (pale) (Polygonum lapathifolium) (assay: Herbicidal pre-emergence test, Smartweed (pale)). Conditions: 1200 g/ha, scale of 0-100, 0 no activity, 100 total control, about two or four weeks after application.
Format: in vivo
Procedure: as §1

| SMILES | Herbicidal Activity SMT (pre-emergence) |
| --- | --- |
| C#CCN1C(=O)COc2cc(F)c(N3C(=O)C(=O)N(CC(F)(F)F)C3=O)cc21 [Compound 24] | 0 |
| C#CCOc1cc(N2C(=O)C(=O)N(CCCC)C2=O)c(F)cc1Cl [Compound 14] | 0 |
| C#CCOc1cc(N2C(=O)C(=O)N(C)C2=O)c(F)cc1Cl [Compound 12] | 0 |

The compounds below were run on Smartweed, (pale) (Polygonum lapathifolium) (assay: Herbicidal post-emergence test, Smartweed (pale)). Conditions: 1200 g/ha, scale of 0-100, 0 no activity, 100 total control, about two or four weeks after application.
Format: in vivo
Procedure: as §1

| SMILES | Herbicidal Activity SMT (post-emergence) |
| --- | --- |
| C#CCN1C(=O)COc2cc(F)c(N3C(=O)C(=O)N(CC(F)(F)F)C3=O)cc21 [Compound 24] | 40 |
| C#CCOc1cc(N2C(=O)C(=O)N(CCCC)C2=O)c(F)cc1Cl [Compound 14] | 60 |
| C#CCOc1cc(N2C(=O)C(=O)N(C)C2=O)c(F)cc1Cl [Compound 12] | 100 |

What follows are compounds tested on Velvetleaf (Abutilon theophrasti) (assay: Herbicidal pre-emergence test, Velvetleaf). Conditions: 1200 g/ha, scale of 0-100, 0 no activity, 100 total control, about two or four weeks after application.
Format: in vivo
Procedure: as §1

| SMILES | Herbicidal Activity VEL (pre-emergence) |
| --- | --- |
| C#CCN1C(=O)COc2cc(F)c(N3C(=O)C(=O)N(CC(F)(F)F)C3=O)cc21 [Compound 24] | 0 |
| C#CCOc1cc(N2C(=O)C(=O)N(CCCC)C2=O)c(F)cc1Cl [Compound 14] | 0 |
| C#CCOc1cc(N2C(=O)C(=O)N(C)C2=O)c(F)cc1Cl [Compound 12] | 20 |

What follows are compounds tested on Velvetleaf (Abutilon theophrasti) (assay: Herbicidal post-emergence test, Velvetleaf). Conditions: 1200 g/ha, scale of 0-100, 0 no activity, 100 total control, about two or four weeks after application.
Format: in vivo
Procedure: as §1

| SMILES | Herbicidal Activity VEL (post-emergence) |
| --- | --- |
| C#CCN1C(=O)COc2cc(F)c(N3C(=O)C(=O)N(CC(F)(F)F)C3=O)cc21 [Compound 24] | 60 |
| C#CCOc1cc(N2C(=O)C(=O)N(CCCC)C2=O)c(F)cc1Cl [Compound 14] | 100 |
| C#CCOc1cc(N2C(=O)C(=O)N(C)C2=O)c(F)cc1Cl [Compound 12] | 100 |

These compounds were tested on Barnyardgrass (Echinochloa crusgalli) (assay: Herbicidal pre-emergence test, Barnyardgrass). Conditions: 1200 g/ha, scale of 0-100, 0 no activity, 100 total control, about two or four weeks after application.
Format: in vivo
Procedure: as §1

| SMILES | Herbicidal Activity BYG (pre-emergence) |
| --- | --- |
| C#CCN1C(=O)COc2cc(F)c(N3C(=O)C(=O)N(CC(F)(F)F)C3=O)cc21 [Compound 24] | 0/0 |
| C#CCOc1cc(N2C(=O)C(=O)N(CCCC)C2=O)c(F)cc1Cl [Compound 14] | 0 |
| C#CCOc1cc(N2C(=O)C(=O)N(C)C2=O)c(F)cc1Cl [Compound 12] | 0 |

Each compound was assayed on Barnyardgrass (Echinochloa crusgalli) (assay: Herbicidal post-emergence test, Barnyardgrass). Conditions: 1200 g/ha, scale of 0-100, 0 no activity, 100 total control, about two or four weeks after application.
Format: in vivo
Procedure: as §1

| SMILES | Herbicidal Activity BYG (post-emergence) |
| --- | --- |
| C#CCN1C(=O)COc2cc(F)c(N3C(=O)C(=O)N(CC(F)(F)F)C3=O)cc21 [Compound 24] | 0/0 |
| C#CCOc1cc(N2C(=O)C(=O)N(CCCC)C2=O)c(F)cc1Cl [Compound 14] | 30 |
| C#CCOc1cc(N2C(=O)C(=O)N(C)C2=O)c(F)cc1Cl [Compound 12] | 40 |

The compounds below were run on Crabgrass (large) (Digitaria sanguinalis) (assay: Herbicidal pre-emergence test, Crabgrass (large)). Conditions: 1200 g/ha, scale of 0-100, 0 no activity, 100 total control, about two or four weeks after application.
Format: in vivo
Procedure: as §1

| SMILES | Herbicidal Activity CRB (pre-emergence) |
| --- | --- |
| C#CCN1C(=O)COc2cc(F)c(N3C(=O)C(=O)N(CC(F)(F)F)C3=O)cc21 [Compound 24] | 0/0 |
| C#CCOc1cc(N2C(=O)C(=O)N(CCCC)C2=O)c(F)cc1Cl [Compound 14] | 0/0 |
| C#CCOc1cc(N2C(=O)C(=O)N(C)C2=O)c(F)cc1Cl [Compound 12] | 0 |

What follows are compounds tested on Crabgrass (large) (Digitaria sanguinalis) (assay: Herbicidal post-emergence test, Crabgrass (large)). Conditions: 1200 g/ha, scale of 0-100, 0 no activity, 100 total control, about two or four weeks after application.
Format: in vivo
Procedure: as §1

| SMILES | Herbicidal Activity CRB (post-emergence) |
| --- | --- |
| C#CCN1C(=O)COc2cc(F)c(N3C(=O)C(=O)N(CC(F)(F)F)C3=O)cc21 [Compound 24] | 0/0 |
| C#CCOc1cc(N2C(=O)C(=O)N(CCCC)C2=O)c(F)cc1Cl [Compound 14] | 0/0 |
| C#CCOc1cc(N2C(=O)C(=O)N(C)C2=O)c(F)cc1Cl [Compound 12] | 30 |

These compounds were tested on Foxtail, (green) (Setaria viridis) (assay: Herbicidal pre-emergence test, Foxtail (green)). Conditions: 1200 g/ha, scale of 0-100, 0 no activity, 100 total control, about two or four weeks after application.
Format: in vivo
Procedure: as §1

| SMILES | Herbicidal Activity FOX (pre-emergence) |
| --- | --- |
| C#CCN1C(=O)COc2cc(F)c(N3C(=O)C(=O)N(CC(F)(F)F)C3=O)cc21 [Compound 24] | 0/0 |
| C#CCOc1cc(N2C(=O)C(=O)N(CCCC)C2=O)c(F)cc1Cl [Compound 14] | 0 |
| C#CCOc1cc(N2C(=O)C(=O)N(C)C2=O)c(F)cc1Cl [Compound 12] | 0 |

The compounds below were run on Foxtail, (green) (Setaria viridis) (assay: Herbicidal post-emergence test, Foxtail (green)). Conditions: 1200 g/ha, scale of 0-100, 0 no activity, 100 total control, about two or four weeks after application.
Format: in vivo
Procedure: as §1

| SMILES | Herbicidal Activity FOX (post-emergence) |
| --- | --- |
| C#CCN1C(=O)COc2cc(F)c(N3C(=O)C(=O)N(CC(F)(F)F)C3=O)cc21 [Compound 24] | 0/0 |
| C#CCOc1cc(N2C(=O)C(=O)N(CCCC)C2=O)c(F)cc1Cl [Compound 14] | 40 |
| C#CCOc1cc(N2C(=O)C(=O)N(C)C2=O)c(F)cc1Cl [Compound 12] | 40 |

These compounds were tested on Nutsedge, (yellow) (Cyperus esculentus) (assay: Herbicidal pre-emergence test, Nutsedge (yellow)). Conditions: 1200 g/ha, scale of 0-100, 0 no activity, 100 total control, about two or four weeks after application.
Format: in vivo
Procedure: as §1

| SMILES | Herbicidal Activity NUT (pre-emergence) |
| --- | --- |
| C#CCN1C(=O)COc2cc(F)c(N3C(=O)C(=O)N(CC(F)(F)F)C3=O)cc21 [Compound 24] | 0/0 |
| C#CCOc1cc(N2C(=O)C(=O)N(CCCC)C2=O)c(F)cc1Cl [Compound 14] | 0/0 |
| C#CCOc1cc(N2C(=O)C(=O)N(C)C2=O)c(F)cc1Cl [Compound 12] | 0/0 |

What follows are compounds tested on Nutsedge, (yellow) (Cyperus esculentus) (assay: Herbicidal post-emergence test, Nutsedge (yellow)). Conditions: 1200 g/ha, scale of 0-100, 0 no activity, 100 total control, about two or four weeks after application.
Format: in vivo
Procedure: as §1

| SMILES | Herbicidal Activity NUT (post-emergence) |
| --- | --- |
| C#CCN1C(=O)COc2cc(F)c(N3C(=O)C(=O)N(CC(F)(F)F)C3=O)cc21 [Compound 24] | 0/0 |
| C#CCOc1cc(N2C(=O)C(=O)N(CCCC)C2=O)c(F)cc1Cl [Compound 14] | 0/0 |
| C#CCOc1cc(N2C(=O)C(=O)N(C)C2=O)c(F)cc1Cl [Compound 12] | 0/0 |

Each compound was assayed on Perennial Ryegrass (Lolium perenne) (assay: Herbicidal pre-emergence test, Perennial Ryegrass). Conditions: 1200 g/ha, scale of 0-100, 0 no activity, 100 total control, about two or four weeks after application.
Format: in vivo
Procedure: as §1

| SMILES | Herbicidal Activity RYE (pre-emergence) |
| --- | --- |
| C#CCN1C(=O)COc2cc(F)c(N3C(=O)C(=O)N(CC(F)(F)F)C3=O)cc21 [Compound 24] | 0/0 |
| C#CCOc1cc(N2C(=O)C(=O)N(CCCC)C2=O)c(F)cc1Cl [Compound 14] | 0/0 |
| C#CCOc1cc(N2C(=O)C(=O)N(C)C2=O)c(F)cc1Cl [Compound 12] | 0/0 |

These compounds were tested on Perennial Ryegrass (Lolium perenne) (assay: Herbicidal post-emergence test, Perennial Ryegrass). Conditions: 1200 g/ha, scale of 0-100, 0 no activity, 100 total control, about two or four weeks after application.
Format: in vivo
Procedure: as §1

| SMILES | Herbicidal Activity RYE (post-emergence) |
| --- | --- |
| C#CCN1C(=O)COc2cc(F)c(N3C(=O)C(=O)N(CC(F)(F)F)C3=O)cc21 [Compound 24] | 0/0 |
| C#CCOc1cc(N2C(=O)C(=O)N(CCCC)C2=O)c(F)cc1Cl [Compound 14] | 0/0 |
| C#CCOc1cc(N2C(=O)C(=O)N(C)C2=O)c(F)cc1Cl [Compound 12] | 0/0 |
